The values below come from patent US8513233B2, “Pyrimidinyl-propionic acid derivatives and their use as PPAR agonists” (Shanghai Institute of Materia Medica, CAS, priority 2007, dated 2013).

One data set has as its system MCF-7. Put plainly: Growth inhibition, modified MTT assay, MCF-7. Type of data set: cell-based. Particulars: Homo sapiens, MCF7; MCF-7, MTT, mean of 3 independent tests. How it is done: (§1) The growth inhibition was evaluated by the modified MTT assay. Briefly, the cells were seeded at 1×10^4 cells/well in 96-well plates (Falcon, Calif., USA), and incubated for 24 h in […] culture media with 10% FCS. The media were then replaced by serum-free medium. After 24 h, the media were placed in triplicate with grade concentrations of compounds. As controls, the cells were cultivated in DMEM/F12 only. The cells were then treated by MTT (Sigma, USA) assay, […] (5 g/L) for 4 h. After the removal of the supernatant, the purple-blue sediment was dissolved in 100 μL/well DMSO, and the optical densities were read on the multi-well scanning spectrophotometer (Labsystems Dragon, Finland) at 492 nm (A492). The growth inhibition rate (GIR) of the treated cells was calculated using Equation: GIR(%)={1−[A490/A490(control)]}×100% The results were also converted to IC50 (the compound concentration required for 50% growth inhibition of tumor cells), which were calculated by using the sigmoidal fitting model by the Origin 7.0 software (OriginLab, Northampton, Mass., USA). The mean IC50 was determined from the results of 3 independent tests.

In data set [1] the test system is Han:SPRD rat model of ADPKD. The class given is in vivo. Particulars: for 24-hour urine protein level / Blood urea nitrogen (BUN) levels: Treatment Group 10 mg/kg.d. The source says:
Han: SPRD rats were obtained from our own breeding colony that is derived from animals that were kindly provided to us by Mayo Clinic (Rochester Minn.), All animal procedures and care were taken at the SPF-level Laboratory Animal Center of the Second Military Medical University (Shanghai, […].). Carboxymethyl cellulose sodium (CMC-Na) was purchased from Shanghai Chemical Reagent Company. Automatic clinical chemistry analyzer (Hitachi Clinical Analyzer 7080).
2.1 Experimental protocol: A total of 48 Han:SPRD rats (about ⅔ rats were Cy/+, ⅓ were +/+, homozygote rats −/− die within 3 weeks), all at 3 weeks of age, were randomized into 2 groups: negative control group and treatment groups (10 mg/kg.d compound 2). The rats of negative control group were given 1% CMC-Na, while the rats of treatment group were given 10 mg/kg.d compound 2 (suspended in 1% CMC-Na) by daily gavage from 3 weeks through 11 weeks of age, removal +/+ rats in both groups, then general animal feeds were given to rats in control group, the rats of treatment group were given animal feeds added by 0.03% of compound 2 (approximately 10 mg/kg. d), both groups were maintained with free access to water. Long-term observation of the rats until they died, record the length of their life span. 2.2 Physiological and biochemical indexes: since the day of treatment, general state and body weight of rats were examined and recorded every month, Blood (2 ml) was obtained from the rat orbital venous plexus using a glass capillary tube, then centrifuged for 10 minutes at 4000 rpm to collect serum for biochemical analysis including blood urea nitrogen (BUN), ALT, AST, serum lipids et. Urine was collected using Metabolic Cage for 24-hour urine protein analysis. 3.

The next data set concerns T24. As to the kind of experiment: Growth inhibition, modified MTT assay, T24. To be noted: Homo sapiens, T-24, mean of 3 independent tests. The class given is cell-based. How it is done: as §1
A general note: Tetrazolium dyes change colour on reduction, which living cells bring about.

The test system of the next data set is HepG2. Put plainly: Growth inhibition, modified MTT assay, HepG2. The class given is cell-based. To be noted: Homo sapiens, mean of 3 independent tests. How it is done: as §1
The target of a further data set is T1, PPAR-γ (Homo sapiens, UniProt P37231).
T1 construct: expressed in transfected cells; host or cells: U2OS cells, transiently transfected with pcDNA3.1 expression vectors (FuGene6)
T1 sequence (P37231 1-505): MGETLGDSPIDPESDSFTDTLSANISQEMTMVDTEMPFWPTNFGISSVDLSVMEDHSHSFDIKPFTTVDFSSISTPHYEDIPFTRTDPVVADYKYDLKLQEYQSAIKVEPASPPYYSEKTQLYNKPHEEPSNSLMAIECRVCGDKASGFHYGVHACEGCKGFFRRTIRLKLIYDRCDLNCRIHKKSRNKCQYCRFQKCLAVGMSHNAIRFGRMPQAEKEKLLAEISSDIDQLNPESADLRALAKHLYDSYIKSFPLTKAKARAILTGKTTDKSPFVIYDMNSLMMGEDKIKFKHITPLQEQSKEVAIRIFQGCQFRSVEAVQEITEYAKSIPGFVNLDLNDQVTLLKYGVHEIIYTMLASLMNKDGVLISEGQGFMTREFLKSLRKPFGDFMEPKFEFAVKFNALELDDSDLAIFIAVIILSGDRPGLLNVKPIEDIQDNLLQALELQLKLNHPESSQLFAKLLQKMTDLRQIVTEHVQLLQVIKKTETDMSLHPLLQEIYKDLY
T1 sequence (P19793 1-462 partner): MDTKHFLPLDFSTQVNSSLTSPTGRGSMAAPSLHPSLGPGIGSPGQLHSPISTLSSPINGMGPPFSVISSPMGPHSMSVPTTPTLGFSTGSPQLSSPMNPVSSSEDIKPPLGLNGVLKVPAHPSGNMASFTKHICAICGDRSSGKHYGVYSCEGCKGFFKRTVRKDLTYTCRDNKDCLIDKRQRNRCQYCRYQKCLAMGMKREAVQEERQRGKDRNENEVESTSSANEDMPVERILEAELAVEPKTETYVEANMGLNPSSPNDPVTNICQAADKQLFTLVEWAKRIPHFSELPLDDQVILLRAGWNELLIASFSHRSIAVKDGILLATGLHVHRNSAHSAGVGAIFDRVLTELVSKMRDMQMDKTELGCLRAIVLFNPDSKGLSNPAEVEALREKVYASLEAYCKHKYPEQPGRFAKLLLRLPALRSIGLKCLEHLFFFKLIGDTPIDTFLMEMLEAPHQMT
As to the kind of experiment: Transient transfection and transcription assay (luciferase reporter, U2OS cells). Particulars: 24 h treatment. Type of data set: cell-based. The procedure: cDNAs for Human RXR, PPAR were obtained by RTPCR from the human liver or adipose tissues. Amplified cDNAs were cloned into pcDNA3.1 expression vector and the inserts were confirmed by sequencing. U2OS cells were cultured in McCoy's 5A with 10% heat-inactivated fetal bovine serum in a humidified 5% CO2 atmosphere at 37° C. Cells were seeded in 96-well plates the day before transfection to give a confluence of 50-80% at transfection. A total of 60 ng of DNA containing 10 ng of hRXR, 10 ng of pCMV Gal, 10 ng of nuclear receptor expression vectors and 30 ng of the corresponding reporters were cotransfected per well using FuGene6 transfection reagent according to the manufacturer's instructions. […] The final concentration of DMSO in culture medium was 0.1%. […] Luciferase activity was monitored using the luciferase assay kit according to the manufacturers instructions. Light emission was read in a Labsystems Ascent Fluoroskan reader. To measure galactosidase activity to normalize the luciferase data, 50 IL of supernatant from each transfection lysate was transferred to a new microplate. Galactosidase assays were performed in the microwell plates using a kit from Promega and read in a microplate reader. Compounds were tested in five concentrations ranging from 0.01 to 10 μM. […] The results were expressed as means (SD).

In the next data set the test system is SPC-A1. Put plainly: Growth inhibition, modified MTT assay, SPC-A1. Type of data set: cell-based. To be noted: SPCA1, mean of 3 independent tests. The procedure:
as §1

Where [2] appears, read: after 2 months of treatment, P<0.001.

Molecules are shown by their SMILES. Like-named read-outs stand apart in the source and are kept apart here. A value given as a limit tells only on which side of the number the result lay.

For orientation: IC50 means the concentration that gives 50% inhibition. A lower IC50 goes with greater potency in that assay. The term EC50 denotes the concentration that produces a half-maximal response. Read a low EC50 as greater potency. As to `CC(Cc1ccc(Oc2cc(N3CCN(Cc4ccccc4)CC3)nc(N)n2)cc1)(Oc1ccccc1)C(=O)O` (racemic) [Compound 2, rac-3-{4-[2-Amino-6-(4-benzyl-piperazin-1-yl)-pyrimidin-4-yloxy]-phenyl}-2-methyl-2-phenoxy-propionic acid], the half-maximal inhibitory concentration (IC50) with MCF-7 was found to be 55 µM; with T24, 72 µM; in the data set on HepG2, 80.6 µM; in the data set with SPC-A1, 65.5 µM. Besides, the “24-hour urine protein level” value in data set [1] (1 month) worked out at 62.3 ± 6.3 mg/24 h; in data set [1] (2 month), 64.1 ± 5.0 mg/24 h; in data set [1] (3 month), 67.1 ± 4.9 mg/24 h; in data set [1] (4 month) it was 66.3 ± 4.6 mg/24 h; in data set [1] (5 month), 67.1 ± 3.6 mg/24 h; in data set [1] (6 month), 66.0 ± 8.6 mg/24 h. Further, the “24-hour urine protein level” value in data set [1] (7 month) is reported as 64.4 ± 2.8 mg/24 h; in data set [1] (8 month), 70.4 ± 8.8 mg/24 h; in data set [1] (9 month) it was 67.8 ± 3.2 mg/24 h; in data set [1] (10 month), 70.0 ± 5.9 mg/24 h; in data set [1] (baseline), “Non-detected”. Further, the “Blood urea nitrogen (BUN) levels” value was determined as 11.55 ± 0.57 mmol/L in data set [1] (1 month); 12.36 ± 0.77 mmol/L in data set [1] (2 month); 12.58 ± 1.35 mmol/L in data set [1] (3 month); 12.79 ± 1.41 mmol/L in data set [1] (4 month); 13.10 ± 1.64 mmol/L in data set [1] (5 month); 13.26 ± 1.05 mmol/L in data set [1] (6 month). Also, the “Blood urea nitrogen (BUN) levels” value is 12.60 ± 1.40 mmol/L in data set [1] (7 month); 13.16 ± 1.73 mmol/L in data set [1] (8 month); 12.87 ± 2.72 mmol/L in data set [1] (9 month); 13.17 ± 3.70 mmol/L in data set [1] (10 month); 4.97 ± 0.67 mmol/L in data set [1] (baseline). In addition, in data set [1] (setting [2]), the “average 24-hour urine protein level compared with the negative control group” value is reported as “lower”. In addition, in data set [1] (setting [2]), the “average BUN level compared with control group” value was “lower”. In data set [1] (at suitable dose, FIG. 1), the “life span of Han:SPRD rats” value is listed as “prolong the life span”. In data set [1] (rat, in vivo), the “change in body weight” value is reported as “no statistically significant change”. In data set [1] (rat, in vivo), the “poisonous and side effects” value was “without any obvious poisonous and side effects”. In data set [1] (rat, in vivo), the “serum ALT” value is reported as “within the normal range”. Also, in data set [1] (rat, in vivo), the “serum AST” value is “within the normal range”. The serum lipids entry in data set [1] (rat, in vivo) is recorded as “within the normal range”. The average survival time in data set [1] (treatment group, long-term, 2 rats still alive) is listed as at least 451.1 days. Besides, the EC50 at PPAR-γ amounted to 6.76 µM.
With `Cc1ccc(OC(C)(Cc2ccc(Oc3cc(N4CCN(Cc5ccccc5)CC4)nc(N)n3)cc2)C(=O)O)cc1` (stereo not shown) [Compound 31, 3-{4-[2-Amino-6-(4-benzyl-piperazin-1-yl)-pyrimidin-4-yloxy]-phenyl}-2-methyl-2-p-tolyloxy-propionic acid], the IC50 in the data set with MCF-7 came to 29.3 µM; with T24, 40.8 µM; in the data set on HepG2 it was 45.5 µM; with SPC-A1, 35.3 µM. In addition, at PPAR-γ, the EC50 was determined as 3.8 µM.
With `CC(Cc1ccc(Oc2cc(N3CCN(Cc4cccc(C(F)(F)F)c4)CC3)nc(N)n2)cc1)(Oc1ccccc1)C(=O)O` (stereo not shown) [Compound 10, 3-{4-{2-Amino-6-[4-(3-trifluoromethyl-benzyl)-piperazin-1-yl]-pyrimidin-4-yloxy}-phenyl}-2-methyl-2-phenoxy-propionic acid], the IC50 in the data set on MCF-7 was found to be 15.1 µM; with T24 it was 29.1 µM; in the data set with HepG2 it was 38.1 µM; with SPC-A1 it was 25.1 µM. Further, at PPAR-γ, the EC50 was 4.27 µM.
The corresponding values for `CC(Cc1ccc(Oc2cc(N3CCN(c4cccc(Cl)c4)CC3)nc(N)n2)cc1)(Oc1ccccc1)C(=O)O` (stereo not shown) [Compound 23, 3-{4-{2-Amino-6-[4-(3-chloro-phenyl)-piperazin-1-yl]-pyrimidin-4-yloxy}-phenyl}-2-methyl-2-phenoxy-propionic acid] are 11.8 µM, 15.2 µM, 20 µM, 12 µM and 4.37 µM.
In the same order, the values of `COc1ccc(OC(C)(Cc2ccc(Oc3cc(N4CCN(Cc5ccccc5)CC4)nc(N)n3)cc2)C(=O)O)cc1` (stereo not shown) [Compound 30, 3-{4-[2-Amino-6-(4-benzyl-piperazin-1-yl)-pyrimidin-4-yloxy]-phenyl}-2-(4-methoxy-phenoxy)-2-methyl-propionic acid] are 42.8 µM, above 50 µM, above 50 µM, 38.9 µM and 5.75 µM.
The corresponding values for `CC(Cc1ccc(Oc2cc(N3CCN(Cc4cccc5ccccc45)CC3)nc(N)n2)cc1)(Oc1ccccc1)C(=O)O` (stereo not shown) [Compound 6, 3-{4-[2-Amino-6-(4-(naphthalen-1-ylmethyl)-piperazin-1-yl)-pyrimidin-4-yloxy]-phenyl}-2-methyl-2-phenoxy-propionic acid] are 42.2 µM, 36.3 µM, 24.8 µM, 49.8 µM and 3.39 µM.
